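Each compound was tested at five concentrations against cells in 96-well plates for 48 hours. GI50 is the concentration that inhibits growth by half. TGI: concentration producing complete growth inhibition.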

Assay in all cases: inhibition of tumour cell growth, NCI panel, 48 h
Experiment [1] concerns SNB-75 CNS.
The test system of experiment [2] is KM12 colon.
The test system of experiment [3] is K-562 leukemia.
Experiment [4] has as its system UO-31 renal.
The subject of experiment [5] is CCRF-CEM leukemia.
The subject of experiment [6] is SNB-19 CNS.
In experiment [7] the test system is HT29 colon.
Experiment [8] has as its system HCT-116 colon.
Experiment [9] has as its system HCT-15 colon.

Consider `CCN1CCC(O)(c2ccc(Cl)cc2)C(C(=O)c2ccc(Cl)cc2)C1` (stereo unspecified), for which the TGI in [1], in experiment [2], in experiment [3], in experiment [4], in experiment [5] and in [6] was over 100 µM throughout. The TGI in experiment [7] and in experiment [8] was over 100 µM each time.
As to `CCOC(=O)c1[nH]c(COC(C)=O)c2c1CCCCCCCCCC2`, the TGI in [1], in experiment [9], in experiment [2], in experiment [3], in experiment [4] and in [5] was over 100 µM throughout. For the same compound, the TGI in [6], in [7] and in [8] was over 100 µM each time.
Consider `CCN(CC)c1ccc(N=Nc2ccc(-c3nc4ccc[n+](C)c4o3)cc2)cc1`, for which the TGI in experiment [1] was 24 µM; in [9], 22.3 µM; in experiment [2], 24.5 µM; in experiment [3] it was 12.4 µM; in [4], 25.4 µM; in experiment [5] it was 19.8 µM. Besides, the TGI in experiment [6] came out at 26.1 µM; in experiment [7] it was 24.3 µM; in experiment [8] it was 16.3 µM.
Take `Cn1cc2ccccc2c1-c1nc(F)nc(OCC(=O)[C@H]2CCC3[C@@H]4CCC5=CC(=O)CC[C@]5(C)C4[C@@H](O)C[C@@]32C)n1` (stereo partly specified): the TGI in experiment [1] is 35.2 µM; in experiment [9], 20.7 µM; in experiment [2] it was 33.3 µM; in [3], 8.94 µM; in experiment [4] it was 37.8 µM; in experiment [5] it was 27.5 µM. Moreover, the TGI was found to be 36 µM in experiment [6], 42.7 µM in experiment [7] and 27 µM in [8].
`Cc1cc2c([nH]c3ccccc32)c2c1OC(C)(C)C1C3CC(C)(C)Oc4c(C)cc5c6ccccc6n(c5c43)C21` (stereo unspecified): the TGI in [1], in experiment [9], in [2], in experiment [3], in experiment [4] and in experiment [5] was over 100 µM in each case. In addition, the TGI in experiment [6], in experiment [7] and in experiment [8] was over 100 µM in each case.
Regarding `N#CC1CCCCCCCCCCC(=O)N(CCCl)C1=O` (stereo unspecified), the TGI in experiment [1], in experiment [2], in [3], in experiment [4], in experiment [5] and in experiment [6] was over 100 µM each time. Further, in experiment [7], the TGI was over 100 µM.
Take `CN(C)CC/[N+]([O-])=C(/c1ccccc1)C12CC3CC(CC(C3)C1)C2`: the TGI in experiment [1] was 24.7 µM; in [9] it was 38.8 µM; in experiment [2], 33.3 µM; in experiment [3], 30.8 µM; in experiment [4] it was 24.6 µM; in experiment [5], 34.3 µM. Besides, the TGI was found to be 37.5 µM in [6], 23.8 µM in experiment [7] and 32 µM in experiment [8].
In the case of `Cn1cc(C(=O)C[n+]2ccccc2)c2ccccc21`, the TGI in [1], in experiment [9], in experiment [2], in [3], in [4] and in experiment [5] was over 100 µM throughout. Moreover, the TGI in [6], in experiment [7] and in experiment [8] was over 100 µM each time.
Regarding `COc1ccc(OCC(=O)O)c(C(=O)CCC(=O)O)c1`, the TGI in experiment [1], in [9], in experiment [2], in [3], in experiment [4] and in [5] was over 100 µM throughout. Moreover, the TGI in experiment [6], in [7] and in experiment [8] was over 100 µM each time.
On to `CC(C)OP(=O)(NC(=S)c1ccccc1)OC(C)C`, for which the TGI in experiment [1], in experiment [9], in experiment [2], in experiment [3], in [4] and in experiment [5] was over 100 µM in each case. Also, the TGI in experiment [6], in [7] and in experiment [8] was over 100 µM in each case.
With `N#C/C(=C\c1ccc(Br)cc1)n1nnc2ccc(F)cc21`, the TGI was 2.24 µM in [1]; 1.78 µM in experiment [9]; 4.04 µM in experiment [2]; over 100 µM in experiment [3]; 2.2 µM in experiment [4]; over 100 µM in experiment [5]. Moreover, the figures for the TGI in experiment [6] and in experiment [8] were 3.16 µM and 2.35 µM, respectively. In addition, the GI50 in [9] was 0.353 µM; in [2] it was 1.3 µM; in experiment [3], 0.332 µM; in experiment [4], 1.02 µM; in [5], 0.395 µM; in experiment [6], 1.66 µM. Besides, the GI50 in experiment [8] was 0.741 µM.
Regarding `CC1(C)C2C=CC1C(=O)CC2` (stereo unspecified), the TGI in experiment [1], in experiment [9], in [2], in [3], in experiment [4] and in experiment [5] was over 100 µM each time. In addition, the TGI in experiment [6], in experiment [7] and in experiment [8] was over 100 µM each time.
With `CC(=O)OCC1OC(n2c(-c3ccc(C)cc3)cc(-c3ccccc3)c(C#N)c2=O)C(OC(C)=O)C(OC(C)=O)C1OC(C)=O` (stereo unspecified), the TGI in experiment [1], in [9], in [2], in [3], in [4] and in [5] was over 100 µM in each case. The TGI in [6], in [7] and in experiment [8] was over 100 µM in each case.
For the compound `O=c1cccccc1[O-].O=c1cccccc1[O-].O=c1cccccc1[O-].[La+3]`, the TGI in [9] is over 100 µM; in experiment [2] it was over 100 µM; in [3] it was over 100 µM; in experiment [4] it was 65.8 µM; in experiment [5], 51.3 µM; in [6], 84.1 µM. The values for the TGI in experiment [7] and in experiment [8] were over 100 µM and 31.2 µM, respectively.
Turning to `Cc1cc2c(C)nn(Cc3ccc(Cl)cc3)c2c(C#N)c1C`, the TGI in experiment [9], in [4], in experiment [5], in experiment [6] and in experiment [8] was over 100 µM in each case.
With `COC(=O)Nc1nc2ccc(Br)cc2[nH]1`, the TGI in [1], in experiment [9], in experiment [2], in experiment [3], in experiment [4] and in [5] was over 100 µM each time. Besides, the TGI was 37.4 µM in experiment [7] and over 100 µM in experiment [8].
As to `COc1ccccc1NC(=O)CC(=O)N/N=C/c1ccc(N(CCC#N)S(=O)(=O)c2ccccc2)cc1`, the TGI in experiment [1], in experiment [9], in [2], in [3], in experiment [4] and in [5] was over 100 µM each time. In addition, the TGI in [6], in [7] and in experiment [8] was over 100 µM in each case.
`CCCSS[C@H]1NC(=O)[C@H]1NC(=O)COc1ccccc1`: the TGI was 44 µM in [1]; 24.9 µM in [9]; 31.6 µM in [2]; 28.6 µM in [3]; over 100 µM in experiment [4]; 19.1 µM in experiment [5]. Also, the results for the TGI in [6], in experiment [7] and in experiment [8] were over 100 µM, 36.3 µM and 22 µM, respectively.
Take `COc1ccc(C2ON(c3cccc(C)n3)CC=C2C)cc1` (stereo unspecified): the TGI in experiment [1], in [9], in experiment [2], in experiment [3], in [4] and in experiment [5] was over 100 µM throughout. The TGI in [6] and in [7] was over 100 µM each time.
On to `COC(C)(C)C/C=C/C(C)=C/C=C/C(C)=C\C=C\C(C)=C\C=C\C=C(C)\C=C\C=C(C)\C=C\C=C(C)\C=C\CC(C)(C)OC`, for which the GI50 in experiment [1], in [9], in [3], in [4], in [5] and in experiment [6] was over 150 µg/mL in each case. Also, the GI50 in experiment [7] and in [8] was over 150 µg/mL in each case. Further, the TGI in [1], in [9], in experiment [3], in [4], in experiment [5] and in [6] was over 150 µg/mL throughout. The TGI in experiment [7] and in [8] was over 150 µg/mL in each case.
Turning to `O=C(NC12CC3CC(CC(C3)C1)C2)C(=O)c1c[nH]c2ccccc12`, the TGI in experiment [9] was 24.4 µM; in experiment [2], 28.5 µM; in experiment [4], 36.6 µM; in [5] it was 73.6 µM; in experiment [6], 32.3 µM; in experiment [7], 15 µM. This compound also came in with a TGI in [8] of 30.5 µM.
For `Clc1ccc(C(n2cc(Br)cn2)n2cc(Br)cn2)cc1`, the TGI in experiment [9] turned out to be 33.2 µM; in experiment [2], 31.6 µM; in experiment [3], 53.6 µM; in experiment [4], 20 µM; in experiment [5], 60.9 µM; in experiment [7], 26.9 µM.

The record behind these values is PubChem BioAssay (NCI).
